Measured values reported in US20160303141A1, “CORTEXOLONE 17alpha-PROPIONATE FOR USE IN THE TREATMENT OF SKIN WOUNDS AND/OR ATROPHIC SKIN DISORDERS” (CASSIOPEA S.P.A., priority 2013, published 2016).

Tests used:
[1] = system: Adult human dermal fibroblasts (HDF); assay: In-vitro effect on extra-cellular protein synthesis (Bradford); format: cell-based; conditions: for Protein synthesis (Δ% vs. control): Table 2 summary; for effect on extracellular protein synthesis (in words): same test and conditions as Example 3; for Δ % vs. control (protein concentration) / Protein concentration Treated: 72 h; for Protein concentration Treated: supernatant
Description: Adult human dermal fibroblasts (HDF) were appropriately grown, and were employed between 2nd and 6th passage. The fibroblasts, plated in a 24-wells plate at the density of 12×10^4 cells/mL (1 mL/well), were incubated for 72 hours with rhEGF (100 nM) as positive control, or with cortexolone 17α-propionate at concentration of 5 μM, 25 μM, 50 μM. After 72 h of incubation the supernatant were mixed with 1 mL of Bradford reagent and incubated for 45 minutes at room temperature. Each sample was then read in a spectrophotometer at 595 nm.

[2] = system: Adult human dermal fibroblasts (HDF); assay: In-vitro fibroblast proliferation (BrdU incorporation); format: cell-based; conditions: for Fibroblast proliferation (Δ% vs. control): Table 2 summary; for proliferative stimulating effect (in words): same test and conditions as Example 1; for Δ % vs. control (proliferation) / Absorbance ± SD Treated: 72 h; for Absorbance ± SD Treated: BrdU, 450 nm
Description: Fibroblast proliferation: Adult human dermal fibroblasts (HDF) were appropriately grown, and were employed between 2nd and 6th passage. […] Twenty-four hours before end of incubation, the cells were labelled with Bromo deoxyuridine (BrdU, 10 μL/well) and its incorporation into DNA was evaluated measuring the absorbance of the samples in an ELISA reader at 450 nm. The proliferation rate of the fibroblasts was evaluated on the increase of the absorbance of the samples.

[3] = system: Adult human dermal fibroblasts (HDF); assay: In-vitro effect on synthesis of type I procollagen (PIP ELISA); format: cell-based; conditions: for Procollagen I Synthesis (Δ% vs. control): Table 2 summary; for effect on synthesis of type I procollagen (in words): same test and conditions as Example 4; for Δ % vs. control (PIP) / PIP concentration: 48 h; for PIP concentration: supernatant
Description: Adult human dermal fibroblasts (HDF) were appropriately grown, and were employed between 2nd and 4th passage. […] After the incubation the supernatant were collected and dosed for the terminal peptide of type I procollagen (PIP) with ELISA kit. The measurement of PIP concentration in the culture medium is representative for the production of collagen type I. The results of type I procollagen concentration (PIP) are reported in the Table 6 below: […]

[4] = system: testosterone propionate (TP) response; assay: Local antiandrogenic activity, flank organ test in hamster; format: in vivo; conditions: for Percent inhibition of testosterone propionate (TP) response: topical on flank organ; for Mean inhibition (%): mean over daily doses 100, 200, 400 μg + 4 μg TP
Description: The numbers indicate the percent inhibition of the stimulating response induced by the application of testosterone propionate (TP): the higher the number, the higher the inhibition of the androgenic response to testosterone propionate (TP).

[5] = system: Adult human dermal fibroblasts (HDF); assay: In-vitro fibroblast migration (image density); format: cell-based; conditions: for Image density 6 h: 6 h after insert removal; for Image density 24 h: 24 h after insert removal; for Image density t0: immediately after insert removal; for Δ (%) vs. vehicle (migration): increase t0-24 h
Description: Fibroblast migration: Adult human dermal fibroblasts (HDF) were appropriately grown, and were employed between 2nd and 6th passage. […] After incubation the culture-insert was removed and the cells were maintained in culture for further 24 hours. Immediately after insert removal, and at interval of 6 and 24 h, the plates were photographed by Digital Microscope Eyepiece. The entity of cell migration was measured using image analyzing software Image J, and was expressed as image density.

[6] = system: cutaneous wounds; assay: In vivo wound healing activity, repTOP mitoIRE mouse model; conditions: 250 mg/mouse topical
Description: The wound healing activity of the cortexolone 17α-propionate on cutaneous wounds was evaluated in an in vivo test foreseeing the use of repTOP™ mitoIRE mouse model. RepTOP™ mitoIRE mice from TOP® S.r.l. are engineered for the ubiquitous and proliferation-regulated expression of luciferase in proliferating tissues by embedding the transgene containing the minimal promoter of Cyclin B2d driving the firefly luciferase gene within HS4 insulator sequences.
Cortexolone 17α-propionate was dissolved in 0.4% (v/v) tween 80 and 0.5% (w/v) carboxymethylcellulose in normal saline.
The test was carried out comparing the wound healing activity of cortexolone 17α-propionate at two different dosages (50 mg/mouse and 250 mg/mouse) versus the vehicle (i.e. 0.4% (v/v) tween 80 and 0.5% (w/v) carboxymethylcellulose in normal saline) and versus a comparator, i.e. Cicatrene® cream (Johnson&Johnson®), a drug product used in wound management and wound healing.
Animal treatments. The repTOP™ mitoIRE mice were shaved by VEET® depilatory cream a day before the treatment. A round full-thickness wound of 0.4 cm^2 area was made through the dorsal skin and the panniculus carnosus muscle of repTOP™ mitoIRE by using skin biopsy devices (HS biopsy punch).
In vivo test. In order to establish the proliferative stimulating activity of cortexolone 17α-propionate, the vehicle (200 μl/mouse), cortexolone 17α-propionate (50 mg/mouse), cortexolone 17α-propionate (250 mg/mouse) and Cicatrene® (200 mg/mouse) were spread topically on the wound of repTOP™ mitoIRE mice (4 mice per group of treatment), immediately after the generation of the round punch. Photon-emission was measured in wound area at the following times: time 0 and 1, 2, 3 and 6 days after the treatment. A representation of the area of wound selected for the measurements is depicted in FIG. 1.
In vivo imaging. […] Photon emission in wound area was measured using the Living Image Software (Caliper™, a Perkin Elmer™ company) and expressed as photon/second/cm^2/steradian (p/s/cm^2/sr). The measurement of wound areas was expressed as cm^2.

[7] = daily dose 100 μg test compound + 4 μg TP
[8] = daily dose 200 μg test compound + 4 μg TP
[9] = daily dose 400 μg test compound + 4 μg TP

CCCC(=O)OCC(=O)[C@@]1(OC(=O)CCC)CC[C@H]2[C@@H]3CCC4=CC(=O)CC[C@]4(C)[C@H]3CC[C@@]21C [Cortexolone 17α,21-dibutyrate, cortexolone 17α,21-dibutyrate]
Protein synthesis (Δ% vs. control) ([1]; 50 μM): 0.6%
effect on extracellular protein synthesis (in words) [1]: did not show any effect in increasing the extracellular protein synthesis
Fibroblast proliferation (Δ% vs. control) ([2]; 50 μM): 9.6%
proliferative stimulating effect (in words) [2]: did not show any proliferative stimulating effect
Procollagen I Synthesis (Δ% vs. control) ([3]; 50 μM): −2.8%
effect on synthesis of type I procollagen (in words) [3]: did not show any effect in increasing the synthesis of type I procollagen
Percent inhibition of testosterone propionate (TP) response [4, 7]: 84%
Percent inhibition of testosterone propionate (TP) response [4, 8]: 89%
Percent inhibition of testosterone propionate (TP) response [4, 9]: 97%
Mean inhibition (%) [4]: 90%

CCC(=O)O[C@]1(C(=O)CO)CC[C@H]2[C@@H]3CCC4=CC(=O)CC[C@]4(C)[C@H]3CC[C@@]21C [Cortexolone 17α-propionate, cortexolone 17α-propionate]
Δ % vs. control (protein concentration) ([1]; 5 μM): 0%
Protein concentration Treated ([1]; 5 μM): 0.5 ± 0.056 mg/mL
Δ % vs. control (protein concentration) ([1]; 25 μM): 12.18%
Protein concentration Treated ([1]; 25 μM): 0.884 ± 0.028 mg/mL
Δ % vs. control (protein concentration) ([1]; 50 μM): 27.41%
Protein concentration Treated ([1]; 50 μM): 0.846 ± 0.087 mg/mL
Protein synthesis (Δ% vs. control) ([1]; 50 μM): 27.4%
Increase from t0 − 24 h (image density) ([5]; 10 μM): 35.2
Image density 6 h ([5]; 10 μM): 24.0 ± 2.4
Image density 24 h ([5]; 10 μM): 54.5 ± 2.5
Image density t0 ([5]; 10 μM): 19.3 ± 0.8
Δ (%) vs. vehicle (migration) ([5]; 10 μM): 30.3%
Increase from t0 − 24 h (image density) ([5]; 50 μM): 44.0
Image density 6 h ([5]; 50 μM): 25.1 ± 1.2
Image density 24 h ([5]; 50 μM): 64.1 ± 5.6
Image density t0 ([5]; 50 μM): 20.1 ± 2.0
Δ (%) vs. vehicle (migration) ([5]; 50 μM): 62.9%
Δ % vs. control (proliferation) ([2]; 1 μM): −0.95%
Absorbance ± SD Treated ([2]; 1 μM): 2.06 ± 0.15
Δ % vs. control (proliferation) ([2]; 5 μM): 6.71%
Absorbance ± SD Treated ([2]; 5 μM): 2.05 ± 0.24
Δ % vs. control (proliferation) ([2]; 25 μM): 7.00%
Absorbance ± SD Treated ([2]; 25 μM): 2.09 ± 0.19
Δ % vs. control (proliferation) ([2]; 50 μM): 30.98%
Absorbance ± SD Treated ([2]; 50 μM): 2.48 ± 0.23
Fibroblast proliferation (Δ% vs. control) ([2]; 50 μM): 31.0%
time of maximum increase of proliferative cells after administration [6]: 3 days
mean reduction in wound area ([6]; after 3 days from administration): 26%
increase of photon-emission from wounds with respect to time 0 ([6]; time 3 days): 143%
Δ % vs. control (PIP) ([3]; 10 μM): −8.27%
PIP concentration ([3]; 10 μM): 949.50 ± 149.81 ng/mL
Δ % vs. control (PIP) ([3]; 50 μM): 199.59%
PIP concentration ([3]; 50 μM): 3100.98 ± 152.59 ng/mL
Procollagen I Synthesis (Δ% vs. control) ([3]; 50 μM): 199.6%
Percent inhibition of testosterone propionate (TP) response [4, 7]: 62%
Percent inhibition of testosterone propionate (TP) response [4, 8]: 69%
Percent inhibition of testosterone propionate (TP) response [4, 9]: 86%
Mean inhibition (%) [4]: 72%

CCCCC(=O)O[C@]1(C(=O)CO)CC[C@H]2[C@@H]3CCC4=CC(=O)CC[C@]4(C)[C@H]3CC[C@@]21C [Cortexolone 17α-valerate, cortexolone 17α-valerate]
Protein synthesis (Δ% vs. control) ([1]; 50 μM): −3.8%
effect on extracellular protein synthesis (in words) [1]: did not show any effect in increasing the extracellular protein synthesis
Fibroblast proliferation (Δ% vs. control) ([2]; 50 μM): −33.8%
proliferative stimulating effect (in words) [2]: did not show any proliferative stimulating effect
Procollagen I Synthesis (Δ% vs. control) ([3]; 50 μM): −14.6%
effect on synthesis of type I procollagen (in words) [3]: did not show any effect in increasing the synthesis of type I procollagen
Percent inhibition of testosterone propionate (TP) response [4, 7]: 66%
Percent inhibition of testosterone propionate (TP) response [4, 8]: 65%
Percent inhibition of testosterone propionate (TP) response [4, 9]: 73%
Mean inhibition (%) [4]: 68%

C[C@]12CCC(=O)C=C1CC[C@@H]1[C@@H]2[C@@H](O)C[C@@]2(C)[C@H]1CC[C@]2(O)C(=O)CO [Cortisol, cortisol, reference compound]
Increase from t0 − 24 h (image density) ([5]; 50 μM): 34.4
Image density 6 h ([5]; 50 μM): 22.9 ± 2.7
Image density 24 h ([5]; 50 μM): 56.6 ± 4.4
Image density t0 ([5]; 50 μM): 22.2 ± 3.2
Δ (%) vs. vehicle (migration) ([5]; 50 μM): 27.4%
Δ % vs. control (proliferation) ([2]; 50 μM): −56.84%
Δ % vs. control (PIP) ([3]; 50 μM): −74.94%
PIP concentration ([3]; 50 μM): 259.36 ng/mL

O=C1O[C@H]([C@@H](O)CO)C(O)=C1O [Vit. C, L-Ascorbic acid]
Δ % vs. control (PIP) ([3]; 0.2 mM): 260.87%
PIP concentration ([3]; 0.2 mM): 3735.27 ± 515.52 ng/mL

rhEGF: recombinant human Epidermal Growth Factor, known fibroblast proliferation promoter, positive control
Δ % vs. control (protein concentration) ([1]; 100 nM): 49.54%
Protein concentration Treated ([1]; 100 nM): 0.978 ± 0.074 mg/mL
Increase from t0 − 24 h (image density) ([5]; 100 nM): 43.6
Image density 6 h ([5]; 100 nM): 21.6 ± 1.0
Image density 24 h ([5]; 100 nM): 65.7 ± 4.2
Image density t0 ([5]; 100 nM): 22.1 ± 2.9
Δ (%) vs. vehicle (migration) ([5]; 100 nM): 61.5%
Δ % vs. control (proliferation) ([2]; 100 nM): 49.49%
Absorbance ± SD Treated ([2]; 100 nM): 2.72 ± 0.22
